Data set [1] addresses T1, Recombinant HCV polymerase (Hepatitis C virus genotype 1b, UniProt P26663).
T1 construct: 2.5 pmoles (0.15 μg) HCV polymerase protein
The experiment in a line: HCV Polymerase Inhibition Assay. The format is biochemical. The settings on record: primer/template-directed transcription, 30 minutes at 30° C. In outline: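 Recombinant genotype 1b polymerase (2.5 pmol) extended biotin-dG12 on poly(rC)300 with 1 μM GTP plus α-32P-GTP, pH 7.2, 30 min at 30 °C, 1% DMSO final; DE-filter-bound product counted. IC50 fitted from triplicate cpm, refitted with enzyme-concentration (30 nM) tight-binding equation when below 200 nM.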

Data set [2] addresses T2, NS5B, the RNA-dependent RNA polymerase (Hepatitis C virus genotype 1b, UniProt P26663).
T2 construct: NS5B, the RNA-dependent RNA polymerase, is also a useful viral target
The settings on record: Ishii et al. 1999; cited from earlier work.

Another data set deals with pestivirus. The settings on record: Baginski et al. 2000; cited from earlier work.

Where two headings read alike, the source gives them in different places.

The term melting point denotes the temperature, or range, at which the solid turns liquid. By IC50 is commonly meant the concentration that gives 50% inhibition.

T1 sequence (P26663 2420-3010): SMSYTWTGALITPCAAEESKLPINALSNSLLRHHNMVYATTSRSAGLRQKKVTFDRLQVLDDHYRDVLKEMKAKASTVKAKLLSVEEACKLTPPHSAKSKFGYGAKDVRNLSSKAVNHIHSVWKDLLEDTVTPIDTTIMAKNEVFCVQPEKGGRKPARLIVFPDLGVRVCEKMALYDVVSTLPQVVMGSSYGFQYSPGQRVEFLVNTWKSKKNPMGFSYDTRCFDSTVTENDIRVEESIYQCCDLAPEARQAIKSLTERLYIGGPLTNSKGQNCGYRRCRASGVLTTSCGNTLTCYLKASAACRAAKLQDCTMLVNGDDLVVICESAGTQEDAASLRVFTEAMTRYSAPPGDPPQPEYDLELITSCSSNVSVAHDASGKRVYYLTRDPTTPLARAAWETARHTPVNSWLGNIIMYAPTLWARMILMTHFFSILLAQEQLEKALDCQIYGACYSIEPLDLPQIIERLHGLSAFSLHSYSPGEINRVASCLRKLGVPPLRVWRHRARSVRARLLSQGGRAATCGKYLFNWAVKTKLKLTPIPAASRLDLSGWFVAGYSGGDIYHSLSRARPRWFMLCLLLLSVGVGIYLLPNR
T2 sequence (P26663 2420-3010): as above

`Cc1cc(SC2=C(O)CC(CCc3ccc(O)cc3)(C3CCCC3)OC2=O)c(C(C)(C)C)cc1NS(=O)(=O)c1ccccc1` (racemic) [Example 141, (+/−)N-(5-tert-butyl-{6-cyclopentyl-4-hydroxy-6-[2-(4-hydroxy-phenyl)-ethyl]-2-oxo-5,6-dihydro-2H-pyran-3-ylsulfanyl}-2-methyl-phenyl)-benzenesulfonamide] displayed a melting point of 125 to 127 °C. For the same compound, in data set [1] (category symbol), the IC50 lay within 1 to 10 µM.

Regarding `Nc1ccn([C@@H]2CS[C@H](COP(=O)(O)OP(=O)(O)OP(=O)(O)O)O2)c(=O)n1` [3TC; lamivudine triphosphate], in data set [2], the “Inhibition of RdRp activity” value is reported as “Inhibition of RdRp activity”.

`O=C1CC(=O)OC(CCc2ccccc2)(C2CCCC2)C1` (stereo not drawn) [Example 35, 6-Cyclopentyl-6-phenethyl-dihydro-pyran-2,4-dione] yielded a melting point of 96 to 99 °C. In addition, in data set [1] (category symbol), the IC50 was 10 to 50 µM.

In turn, `CC(=O)Nc1cc(C(C)(C)C)c(SC2=C(O)CC(CCc3ccc(O)cc3)(C3CCCCC3)OC2=O)cc1C` (stereo not drawn) [Example 142, N-(5-tert-butyl4-{6-cyclohexyl-4-hydroxy-6-[2-(4-hydroxy-phenyl)-ethyl]-2-oxo-5,6-dihydro-2H-pyran-3-ylsulfanyl)-2-methyl-phenyl)-acetamide] registered a melting point above 154 °C. In addition, the IC50 in data set [1] (category symbol) is above 50 µM.

`Cc1cc(SC2=C(O)CC(CCc3ccc(O)cc3)(C3CCCCC3)OC2=O)c(C(C)(C)C)cc1N` (stereo not drawn) [Example 143, 3-(4-Amino-2-tert-butyl-5-methyl-phenylsulfanyl)-6-cyclohexyl-4-hydroxy-6-[2-(4-hydroxy-phenyl)-ethyl]-5,6-dihydro-pyran-2-one] gave a melting point above 133 °C. Also, the IC50 in data set [1] (category symbol) lay in the range of 1 to 10 µM.

With `Cc1cc(SC2=C(O)CC(CCc3ccc(O)cc3)(C3CCCC3)OC2=O)c(C(C)(C)C)cc1OS(=O)(=O)N1CCN(C)CC1` (stereo not drawn) [Example 147], the melting point was in the range of 163 to 165 °C. In data set [1] (category symbol), the IC50 was in the range of 1 to 10 µM.

The compound `Cc1cc(SC2=C(O)CC(CCc3ccc(O)cc3)(C3CCCC3)OC2=O)c(C(C)(C)C)cc1OCCO` (stereo not drawn) [Example 148, 3-[2-tert-butyl-4-(2-hydroxy-ethoxy)-5-methyl-phenylsulfanyl]-6-cyclopentyl-4-hydroxy-6-[2-(4-hydroxy-phenyl)-ethyl]-5,6-dihydro-pyran-2-one] had a melting point of 113 to 115 °C. For the same compound, the IC50 in data set [1] (category symbol) lay in the range of 1 to 10 µM.

`CCNS(=O)(=O)Oc1cc(C(C)(C)C)c(SC2=C(O)CC(CCc3cccc(O)c3)(C3CCCC3)OC2=O)cc1C` (stereo not drawn) [Example 149, Ethyl-sulfamic acid 5-tert-butyl-4-{6-cyclopentyl-4-hydroxy-6-[2-(3-hydroxy-phenyl)-ethyl]-2-oxo-5,6-dihydro-2H-pyran-3-ylsulfanyl}-2-methyl-phenyl ester] displayed a melting point of 69 to 72 °C. The IC50 in data set [1] (category symbol) is above 50 µM.

For the compound `CCCN(C1=C(O)C[C@@](CCc2cccc(O)c2)(C2CCCC2)OC1=O)c1ccccc1` [Example 155, 6-(S)-Cyclopentyl-4-hydroxy-6-[2-(3-hydroxy-phenyl)-ethyl]-3-(phenyl-propyl-amino)-5,6-dihydro-pyran-2-one], the melting point was in the range of 74 to 76 °C. Besides, in data set [1] (category symbol), the IC50 fell in the range of 1 to 10 µM.

`CCN(C1=C(O)C[C@@](CCc2ccc(O)cc2)(C2CCCC2)OC1=O)c1ccccc1` [Example 158] gave a melting point of 90 to 92 °C.

For the compound `CCCN(C1=C(O)CC(CCc2ccc(O)cc2)(C2CCCC2)OC1=O)c1ccccc1` (stereo not drawn) [Example 159, 6-Cyclopentyl-4-hydroxy-6-[2-(4-hydroxy-phenyl)-ethyl]-3-(phenyl-propyl-amino)-5,6-dihydro-pyran-2-one], the melting point is 95 °C. Besides, the IC50 in data set [1] (category symbol) was in the range of 1 to 10 µM.

For the compound `CCN(C1=C(O)CC(CCc2ccc(O)cc2)(C2CCCC2)OC1=O)c1ccccc1` (stereo not drawn) [Example 160, Cyclopentyl-(ethyl-phenyl-amino)-hydroxy-[2-(4-hydroxy-phenyl)-ethyl]-5,6-dihydro-pyran-2-one], the melting point was in the range of 83 to 85 °C. For the same compound, in data set [1] (category symbol), the IC50 was in the range of 1 to 10 µM.

As for `O=C1OC(CCc2ccc(O)cc2)(C2CCCC2)CC(O)=C1N(c1ccccc1)c1ccccc1` (stereo not drawn) [Example 161, Cyclopentyl-diphenylamino-hydroxy-[2-(4-hydroxy-phenyl)-ethyl]-5,6-dihydro-pyran-2-one], the melting point was in the range of 93 to 94 °C. Moreover, the IC50 in data set [1] (category symbol) was in the range of 1 to 10 µM.

For `COc1ccc(CCC2(C3CCCC3)CC(=O)C(Cc3ccccc3)C(=O)O2)cc1Cl` (stereo not drawn) [Example 178, 3-Benzyl-6-[2-(3-chloro-4-methoxy-phenyl)-ethyl]-6-cyclopentyl-dihydro-pyran-2,4-dione], the IC50 in data set [1] (read-out: IC50(μM) Category) came out at 0.6 µM.

The compound `Cc1cc(SC2=C(O)CC(C3CCCC3)(C3CCCC3)OC2=O)c(C(C)(C)C)cc1N` [Example 179, 3-(4-Amino-2-tert-butyl-5-methyl-phenylsulfanyl)-6,6-dicyclopentyl-4-hydroxy-5,6-dihydro-pyran-2-one] registered a melting point of 163 to 165 °C. Further, in data set [1] (read-out: IC50(μM) Category), the IC50 came out at 15.5 µM.

As for `Cc1cc(SC2=C(O)CC(C3CCCC3)(C3CCCC3)OC2=O)c(C(C)(C)C)cc1CO` [Example 180, 3-(2-tert-butyl-4-hydroxymethyl-5-methyl-phenylsulfanyl)-6,6-dicyclopentyl-4-hydroxy-5,6-dihydro-pyran-2-one], the melting point fell in the range of 158 to 160 °C. Besides, the IC50 in data set [1] (read-out: IC50(μM) Category) turned out to be 15 µM.

In turn, `Cc1cc(SC2=C(O)CC(C3CCCC3)(C3CCCC3)OC2=O)c(C(C)(C)C)cc1OCCO` [Example 181, 3-[2-tert-butyl-4-(2-hydroxy-ethoxy)-5-methyl-phenylsulfanyl]-6,6-dicyclopentyl-4-hydroxy-5,6-dihydro-pyran-2-one] gave a melting point of 100 to 102 °C. Also, the IC50 in data set [1] (read-out: IC50(μM) Category) was 36 µM.

As to `Cc1cc(SC2=C(O)CC(C3CCCC3)(C3CCCC3)OC2=O)c(C(C)(C)C)cc1OS(=O)(=O)c1cn(C)cn1` [Example 182, 1-methyl-1H-imidazole-4-sulfonic acid 5-tert-butyl-4-(6,6-dicyclopentyl-4-hydroxy-2-oxo-5,6-dihydro-2H-pyran-3-ylsulfanyl)-2-methyl-phenyl ester], the melting point lay within 143 to 145 °C. In data set [1] (category symbol), the IC50 lay within 10 to 50 µM.

In the case of `CC(C)(C)c1cc2nc(N)sc2cc1SC1=C(O)CC(C2CCCC2)(C2CCCC2)OC1=O` [Example 183, 3-(2-Amino-5-tert-butyl-benzothiazol-6-ylsulfanyl)-6,6-dicyclopentyl-4-hydroxy-5,6-dihydro-pyran-2-one], in data set [1] (category symbol), the IC50 is 10 to 50 µM.

With `CCCN(C1=C(O)CC(C2CCCC2)(C2CCCC2)OC1=O)c1cccc(NS(=O)(=O)c2ccccn2)c1` [Example 184, Pyridine-2-sulfonic acid {3-[(6,6-dicyclopentyl-4-hydroxy-2-oxo-5,6-dihydro-2H-pyran-3-yl)-propyl-amino]-phenyl}-amide], the melting point was 105 to 107 °C. The IC50 in data set [1] (category symbol) lay in the range of 10 to 50 µM.

In the case of `CCCN(C1=C(O)CC(C2CCCC2)(C2CCCC2)OC1=O)c1cccc(NS(=O)(=O)c2cccs2)c1` [Example 186, Thiophene-2-sulfonic acid {3-[(6,6-dicyclopentyl-4-hydroxy-2-oxo-5,6-dihydro-2H-pyran-3-yl)-propyl-amino]-phenyl}-amide], the melting point lay within 92 to 95 °C. The IC50 in data set [1] (category symbol) was in the range of 10 to 50 µM.

`CCCN(C1=C(O)CC(C2CCCC2)(C2CCCC2)OC1=O)c1cccc(N)c1` [Example 187, 3-[(3-Amino-phenyl)-propyl-amino]-6,6-dicyclopentyl-4-hydroxy-5,6-dihydro-pyran-2-one] yielded a melting point of 173 to 175 °C. For the same compound, the IC50 in data set [1] (category symbol) was above 50 µM.

For the compound `CCCN(CCC)CCSc1nnc2c(n1)[nH]c1ccccc12` [VP32947, 3-[((2-dipropylamino)ethyl)thio]-5H-1,2,4-triazino[5,6-b]indole], the “inhibitor of pestivirus replication” value in the data set with pestivirus is “potent inhibitor”.

For the compound `O=C(O)CP(=O)(O)O` [phosphonoacetic acid, reference compound], in data set [2], the “Inhibition of RdRp activity” value is reported as “Inhibition of RdRp activity”.

(Values after US7115658B2 (priority 2002, dated 2006).)
